Patent US9630964B2, “Fluoro-9-methyl-β-carbolines” (priority 2013, dated 2017)
In brackets after ≈: the same amount, converted by molar mass.

Assays:
[1] = test system: BDNF (brain-derived neurotrophic factor); assay: Quantitative RT-PCR, relative gene expression of BDNF in SH-SY5Y cells; type: cell-based, human; details: 30 μM each
Method: (§1) SH-SY5Y cell lines, which were provided by the institute of human genetics of university hospital Eppendorf and which they in turn received from Braunschweig resource center, were used again for the RT-PCR experiments (reverse transcriptase polymerase chain reaction) carried out for this purpose.
(§2) The cells were incubated in MEM (Minimum essential medium, Life Technologies) with 10% FCS (fetal calf serum, Biochrom AG) and penicillin/streptomycin (Biochrom AG). The cells were seeded with a density of 1×10^5 cells/cm^2 in 25 cm^2 cell culture bottles (Falcon, cell culture treated) with 5 mL medium. Stock solutions of 10 mmol/L of compounds 9-methyl-β-carboline (AC-002 or 9MβC) and 6-fluoro-9-methyl-β-carboline (AC-102 or 6F9MβC), respectively were prepared in distillated water and sterile filtered. One day after the cell seeding the compounds were added in corresponding amounts (5-55 μL) to reach final concentration in the medium of 10 μM, 20 μM and 30 μM for 6F9MβC and 30 μM, 50 μM and 70 μM for 9MβC. The references received only the corresponding amount of solvent (distilled water). The medium was changed once a week.
(§3) The cells were regularly microscopically examined and harvest after 2, 7 and 14 days of incubation time, washed with PBS and immediately frozen at −80° C.
The RNA-isolation was done with the HighPure RNA Isolation kit of the company Roche. […] The concentration of RNA was measured with nanoDrop spectrometer and the RNA integrity was determined with the aid of the Bioanalyzer 2100 (Agilent). […]
After the reaction, this run was diluted 1:4 and thereof 2 μL per each quantitative RT-PCR were used. This was performed in a LightCycler 480 under standard conditions in the SybrGreen format with annealing temperatures determined for each primer individually. […]
The specificity was verified by melting curve analysis and subsequent gel electrophoresis. For each PCR the PCR efficiency and the Cq value was determined by the program LinRegPCR and these were used in further calculations. […] Every measured value from FIGS. 5A-5I represents a mean value of 3 independent biologic samples. […]

[2] = test system: DKK1 (Dickkopf-related protein 1); assay: Quantitative RT-PCR, relative gene expression of DKK1 in SH-SY5Y cells; type: cell-based, human; details: 30 μM each
Method: as §1, §2, §3
(§4) The RNA-isolation was done with the HighPure RNA Isolation kit of the company Roche. This isolation includes a DNaseI digestion. The concentration of RNA was measured with nanoDrop spectrometer and the RNA integrity was determined with the aid of the Bioanalyzer 2100 (Agilent). By using random hexamer primers, protector RNA inhibitor (Roche) and transcriptor reverse transcriptase (fermentas), 300 ng RNA were transcribed into cDNA per each sample.
(§5) After the reaction, this run was diluted 1:4 and thereof 2 μL per each quantitative RT-PCR were used. This was performed in a LightCycler 480 under standard conditions in the SybrGreen format with annealing temperatures determined for each primer individually. If possible, exon spanning primers were used.
(§6) The specificity was verified by melting curve analysis and subsequent gel electrophoresis. For each PCR the PCR efficiency and the Cq value was determined by the program LinRegPCR and these were used in further calculations. B2M (β2-microglobulin) was identified from multiple reference genes to be suitable for examination conditions. All results are results relative to the corresponding reference conditions, at which only solvent was administered for the specified period of time (i.e. 2 days, 7 days or 14 days). In FIGS. 5A to 5I are also relative gene expressions (relative to reference conditions) presented. Here, the 2-day exposition is presented in light grey, the 7-day exposition in dark grey and the 14-day exposition in black. Every measured value from FIGS. 5A-5I represents a mean value of 3 independent biologic samples.
Analogous to example 4 RT-PCR experiments with the inventive active agent 7-fluoro-9-methyl-β-carboline (7F9MβC) were also performed for some important cellular factors. The experimental procedure was here identical to the experiments with 6-fluoro-9-methyl-β-carboline and 9-methyl-β-carboline. Here the same (like for 6F9MβC) final concentrations of 30 μM, 50 μM and 70 μM 7F9MβC for the culture medium were employed. The examined factors were BDNF (brain-derived neurotrophic factor), Lif (Leukemia inhibitory factor), DRD2S (short variant of dopamine receptor subtype 2) as well as DKK1 (Dickkopf-related protein 1). […]

[3] = test system: Lif (Leukemia inhibitory factor); assay: Quantitative RT-PCR, relative gene expression of Lif in SH-SY5Y cells; type: cell-based, human; details: 30 μM each
Method: as §1, §2, §3, §4, §5, §6
(§7) Analogous to example 4 RT-PCR experiments with the inventive active agent 7-fluoro-9-methyl-β-carboline (7F9MβC) were also performed for some important cellular factors. The experimental procedure was here identical to the experiments with 6-fluoro-9-methyl-β-carboline and 9-methyl-β-carboline. Here the same (like for 6F9MβC) final concentrations of 30 μM, 50 μM and 70 μM 7F9MβC for the culture medium were employed. The examined factors were BDNF (brain-derived neurotrophic factor), Lif (Leukemia inhibitory factor), DRD2S (short variant of dopamine receptor subtype 2) as well as DKK1 (Dickkopf-related protein 1). The same primers, that were already listed for the respective target genes in example 4 (Tab. 1) were used. As already noted, especially BDNF and Lif belongs to the most important factors for cellurar repair processes after traumas in the inner ear.

[4] = guinea pig, in vivo
Method: For better evaluation of half times of 9-methyl-β-carboline (9MβC), 6-fluoro-9-methyl-β-carboline (6F9MβC) and 7-fluoro-9-methyl-β-carboline (7F9MβC) in animal organism and more precisely in perilymph (the notified site of action), experiments with guinea pigs were conducted. Therefore, the respective active agent (in total 1.4 mg active agent per ear), packed in 40 μl of a hydrogel (18% Poloxamer 407 and 0.6% alginate), was administered at once in front of the membrane of the round window of narcotized guinea pigs. […] After expiry of the desired time (20 min, 2 h, 8 h or 24 h), each time 5 μL perilymph were removed under anesthesia from the top of the cochlea (apex). Subsequently, the animal was killed. Per each time (20 min, 2 h, 8 h or 24 h) measured values were taken of at least ears and averaged.
The concentration of the corresponding active agent in perilymph samples was determined by high-performance liquid chromatography (HPLC, partly also named as high-pressure liquid chromatography) and measurement of auto fluorescence of the respective active agent. For HPLC the eluent consisted to 45% of 90% acetonitrile and to 55% of ammonium acetate (40 mM, pH<5). The flow rate was 0.4 mL/min and injection volume was 10 μL. Each sample was diluted with 60% methanol, if the signal was too strong. After each run the injection needle was washed with 100% isopropanol. The detection limit was 20 fmol/L.
From the determined active agent concentrations the elimination half times were then calculated.

[5] = test system: DRD2S (short variant of dopamine receptor subtype 2); assay: Quantitative RT-PCR, relative gene expression of DRD2S in SH-SY5Y cells; type: cell-based, human; details: 30 μM each
Method: as §1, §2, §3, §4, §5, §6, §7

[6] = test system: human neuroblastoma cells (SH-SY5Y); assay: Differentiation of human neuroblastoma cells (SH-SY5Y), morphological examination; type: cell-based
Method: The SH-SY5Y cell line was obtained from the German collection of microorganisms and cell cultures—DSMZ, Braunschweig. The cells were cultivated in MEM (Minimum essential medium, Life Technologies) with 10% FCS (fetal calf serum, Biochrom AG) and penicillin/streptomycin (Biochrom AG). For morphological examinations the cells were seeded in a density of 1.5×10^4 cells/cm^2 in 24-well plates (Falcon, cell culture treated) with 1 mL medium. A stock solution of 10 mmol/L of the compound according to the invention 6-fluoro-9-methyl-β-carboline was prepared in 50% ethanol and sterile filtered. Five hours after seeding of the cells the compound according to the invention 6-fluoro-9-methyl-β-carboline was added in the corresponding amount to the medium achieving the desired final concentration. The medium was changed once a week. The cells were regularly microscopically examined. Microscopic images were taken at BZ Keyence 10 with a 10×lens and 4×digital zoom. An automatic contrast enhancement was made with the program BZ Analyzer.

hearing threshold = assay: Acoustically evoked potentials: hearing threshold after acoustic trauma; type: in vivo; details: guinea pig, total 0.35 mg per ear
Method: (§8) To trigger an acoustic trauma, guinea pigs were anesthetized with 60 mg/kg ketamine and 8 mg/kg xylazine. Then Bepanten ointment (Bayer) was administered to the eyes and the animal was put in a soundproof chamber. A calibrated speaker was placed directly above the head of the animal, wherein it was set to emit a half octave band, centered around 8 kHz, with a volume of 110 dB for duration of 30 minutes.
As measure for evaluation of the hearing threshold of the guinea pig acoustically evoked potentials were measured. Therefore, the electrophysiological activity of the nerve cells in the brain stem that forward impulses from the inner ear was derived after sonication of the ear with 8, 11.3, 16, 22.6 and 32 kHz. The sonification was carried out ascendingly from 0 dB to 90 dB in single steps of 5 dB.
The measurement was carried out 3 days before the acoustic trauma (D-3), 30 minutes after the acoustic trauma (D0) as well as 14 days after the acoustic trauma (D14).
Per animal one ear was not treated and used as intra-individual control (hierin partly abbreviated to “contr.”) and the second ear was treated with 6-fluoro-9-methyl-β-carboline. Therefore, one hour after the acoustic trauma a dose of 0.12 mg 6-fluoro-9-methyl-β-carboline (in a hydrogel as vehicle) was administered intratympanically. 3 days after the acoustic trauma a further intratympanic administration of 0.06 mg 6-fluoro-9-methyl-β-carboline was carried out. The measurements were conducted on four guinea pigs (n=4).
Afterwards, the remaining shift of hearing threshold (also named as permanent shift of hearing threshold) was determined from the measured values before the acoustic trauma (D-3) and after 14 days (D14). From the measured values directly after the acoustic trauma (D0) and after 14 days (D14) the recovery from the trauma (D0-D14) was also determined.
Analogous to the above performed experiments with 6-fluoro-9-methyl-β-carboline, also corresponding experiments with 9-methyl-β-carboline were performed. The experimental procedure was nearly identical, wherein of course 9-methyl-β-carboline instead of 6-fluoro-9-methyl-β-carboline was used. The total dose of 9-methyl-β-carboline was here 0.2 mg and 0.35 mg per ear, respectively.

[7] = test system: outer hair cells (OHC) in the inner ear; assay: Immunohistochemical experiments: dying of outer hair cells after acoustic trauma; type: in vivo; details: guinea pig, intratympanic, total 0.2 mg per ear, day 14
Method: as §8, with “induce” for “trigger”
The thermosensitive, liquid mixture was administered under view by a Hamilton syringe directly in front of the round window membrane of the middle ear (10 μL). The first dose 6-fluoro-9-methyl-β-carboline (e.g. 0.07 mg) was administered one hour after the acoustic trauma in a concentration of 0.007 mg/μL and the second dose 6-fluoro-9-methyl-β-carboline (0.035 mg in a volume of 5 μL) on day 3. Here, only one ear per animal was treated, while the second ear served as intra-individual control. The control here is particularly abbreviated to “contr.”. In comparative experiments it was found, that administration of just an active agent vehicle (hydrogel) has no effect in comparison to a fully untreated ear. For each active agent (including the controls) four guinea pigs were examined.
On day 14 after the acoustic trauma the region of the ear was dissected so that it contained the cochlea. […] In this way the sound induced damage can be localized and quantified. […]

physchem = details: water
Method: Furthermore, the solubility of both compounds in water was determined by preparing concentration series of both compounds in water at room temperature. The concentration at which the compound was barely soluble was determined by external calibration. The corresponding concentration was quantified by HPLC.

Compound | BDNF expression relative to expression induced by 9MβC ([1]; 2-day exposition) | BDNF expression relative to expression induced by 9MβC ([1]; longer expositions (7 and 14 days)) | DKK1 expression relative to expression induced by 9MβC ([2]; 2-day exposition) [times] | DKK1 expression relative to expression induced by 9MβC ([2]; 7-day exposition) | DKK1 expression relative to expression induced by 9MβC ([2]; 14-day exposition) [times] | Lif expression relative to expression induced by 9MβC ([3]; 2-day exposition) | Lif expression relative to expression induced by 9MβC ([3]; 7-day exposition) | Lif expression relative to expression induced by 9MβC ([3]; 14-day exposition) | elimination half time [4] | DRD2S expression relative to expression induced by 9MβC ([5]; 2-day exposition) | DRD2S expression relative to expression induced by 9MβC ([5]; 7-day exposition) | DRD2S expression relative to expression induced by 9MβC ([5]; 14-day exposition) | neurite growth as indication of differentiation ([6]; 50 μM, compared to 30 μM 6-fluoro-9-methyl-β-carboline) | concentration at which a comparable differentiation of the tested cells is observed ([6]; SH-SY5Y, 15 days incubation) | improvement of the recovery of hearing threshold (D1-D14) vs untreated control (hearing threshold) | acoustic trauma-induced dying of outer hair cells [7] | solubility (physchem) [µg/mL]
Cn1c2cnccc2c2ccc(F)cc21 [7F9MβC, 7-fluoro-9-methyl-β-carboline] | approximately three times higher | comparable | 1.4 | comparable | 2.2 | approximately three times higher | weaker | comparable | approximately 5.0 h | twice as high | comparable | slightly weaker | – | – | – | – | –
Cn1c2ccccc2c2ccncc21 [9MβC, 9-methyl-β-carboline] | – | – | – | – | – | – | – | – | approximately 3.4 h | – | – | – | too low neurite growth | approximately 70 μM | about 10 dB | could counteract the dying of outer hair cells | 168 (≈ 924 µM)
